Test results taken from patent US20240383915A1, “OXAZEPINE COMPOUNDS AND USES THEREOF IN THE TREATMENT OF CANCER” (Genentech, Inc., priority 2021, published 2024).

Key:
KRas(G12V) = KRas(G12V) (Homo sapiens (Human), UniProt P01116, G12V); assay: KRas(G12V) GDP HTRF (BODIPY-GDP exchange TR-FRET); format: biochemical
KRas = KRas (Homo sapiens (Human), UniProt P01116); assay: KRas GDP HTRF (BODIPY-GDP exchange TR-FRET); format: biochemical
Experimental: KRAS Biochemical Assay—BODIPY-GDP Exchange TR-FRET. Biochemical compound potencies were assessed by evaluating inhibition of SOS1-mediated nucleotide exchange in KRAS G12D. The SOS1-promoted exchange of fluorescently-labeled GDP (BODIPY-GDP) was monitored by time-resolved fluorescence resonance energy transfer (TR-FRET). Compounds solubilized in DMSO were dispensed as concentration series into 384-well white assay plates. […] The reaction was initiated with the addition of 5 μL of 3 nM recombinant human SOS1 and 300 nM BODIPY-GDP in assay buffer. After a 60-minute incubation, the fluorescence was measured with excitation at 337 nm and emission at 490 and 520 nm. The TR-FRET ratio was determined as the fluorescence at 520 nm divided by the fluorescence at 490 nm multiplied by 10,000. […] The normalized TR-FRET results were plotted against compound concentration, and the data fit to a 4-parameter Hill equation to determine the IC50 values.

KRas, sequence (P01116-2 other isoform, or with tags, fused parts or gaps): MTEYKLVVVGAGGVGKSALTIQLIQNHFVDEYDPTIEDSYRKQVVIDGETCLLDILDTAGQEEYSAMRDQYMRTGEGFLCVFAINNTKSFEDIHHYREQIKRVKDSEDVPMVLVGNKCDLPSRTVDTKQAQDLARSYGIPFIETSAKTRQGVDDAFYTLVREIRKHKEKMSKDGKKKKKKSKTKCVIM
KRas(G12V), sequence (P01116-2 other isoform, or with tags, fused parts or gaps G12V): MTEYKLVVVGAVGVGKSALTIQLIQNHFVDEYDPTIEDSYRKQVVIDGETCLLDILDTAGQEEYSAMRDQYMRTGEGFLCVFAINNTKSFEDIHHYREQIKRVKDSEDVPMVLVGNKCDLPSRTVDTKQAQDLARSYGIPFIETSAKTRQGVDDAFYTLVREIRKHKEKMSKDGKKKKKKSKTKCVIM

| SMILES | IC50 (KRas(G12V)) [nM] | IC50 (KRas) [nM] |
| --- | --- | --- |
| Cc1cc(N)nc(-c2c(Cl)c3c4c(nc(OC[C@@]56CCCN5C[C@H](F)C6)nc4c2F)N([C@H](C)c2cc(F)cnc2N)CCO3)c1C(F)(F)F (atropisomer, axis not shown; (aS)) [Example 130a, 6-((R)-4-((R)-1-(2-amino-5-fluoropyridin-3-yl)ethyl)-8-chloro-10-fluoro-2-(((2R,7aS)-2-fluorotetrahydro-1H-pyrrolizin-7a(5H)-yl)methoxy)-5,6-dihydro-4H-[1,4]oxazepino[5,6,7-de]quinazolin-9-yl)-4-methyl-5-(trifluoromethyl)pyridin-2-amine] | 0.06 | 0.07 |
| Cc1cc(N)nc(-c2c(Cl)c3c4c(nc(OC[C@@H]5CC[C@H]6COCCN65)nc4c2F)N([C@H](C)c2ccnnc2N)CCO3)c1C(F)(F)F (atropisomer, axis not shown; (aS)) [Example 175, 4-((R)-1-((R)-9-(6-amino-4-methyl-3-(trifluoromethyl)pyridin-2-yl)-8-chloro-10-fluoro-2-(((6S,8aS)-hexahydro-1H-pyrrolo[2,1-c][1,4]oxazin-6-yl)methoxy)-5,6-dihydro-4H-[1,4]oxazepino[5,6,7-de]quinazolin-4-yl)ethyl)pyridazin-3-amine] | 0.08 | 0.1 |
| Cc1cc(N)nc(-c2c(Cl)c3c4c(nc(OC[C@@]56CCCN5C[C@H](F)C6)nc4c2F)N(C)CCO3)c1C(F)(F)F (single isomer, unassigned) [Example 41b] | 1200 | 6500 |
| Cc1cc(N)nc(-c2c(Cl)c3c4c(nc(OC[C@@H]5CC[C@H]6COCCN65)nc4c2F)N([C@H](C)c2cncc(N)c2)CCO3)c1C(F)(F)F (single isomer, unassigned) [Example 69a] | 0.11 | 0.295 |
| Cc1cc(N)nc(-c2c(Cl)c3c4c(nc(OC[C@@H]5CC(F)(F)CN5C)nc4c2F)N([C@H](C)c2cncc(N)c2)CCO3)c1C(F)(F)F (single isomer, unassigned) [Example 70a] | 0.49 | 8.3 |
| Cc1cc(N)nc(-c2c(Cl)c3c4c(nc(OC[C@@]56CCN5CC(F)(F)C6)nc4c2F)N([C@H](C)c2nccnc2N)CCO3)c1C(F)(F)F (single isomer, unassigned) [Example 162c] | 370 | 830 |
| Cc1cc(N)nc(-c2c(Cl)c3c4c(nc(OC[C@@]56CCN5CC(F)(F)C6)nc4c2F)N([C@H](C)c2nccnc2N)CCO3)c1C(F)(F)F (single isomer, unassigned) [Example 162d] | 410 | 896 |
| Cc1cc(N)nc(-c2cc3nc(OC[C@]45CCCN4CC(F)(F)C5)nc4c3c(c2Cl)OCCN4C)c1C(F)(F)F [Example 7, (R)-6-(8-chloro-2-((2,2-difluorotetrahydro-1H-pyrrolizin-7a(5H)-yl)methoxy)-4-methyl-5,6-dihydro-4H-[1,4]oxazepino[5,6,7-de]quinazolin-9-yl)-4-methyl-5-(trifluoromethyl)pyridin-2-amine] | 420 | 2300 |
| CN1CCOc2c(Cl)c(-c3c(F)ccc4cnn(C)c34)cc3nc(OC[C@@]45CCCN4C[C@H](F)C5)nc1c23 [Example 8, 8-chloro-9-(6-fluoro-1-methyl-1H-indazol-7-yl)-2-(((2R,7aS)-2-fluorotetrahydro-1H-pyrrolizin-7a(5H)-yl)methoxy)-4-methyl-5,6-dihydro-4H-[1,4]oxazepino[5,6,7-de]quinazoline] | 810 | 3900 |
| Cc1cc(N)nc(-c2cc3nc(OC[C@@]45CCCN4CC(F)(F)C5)nc4c3c(c2Cl)OCCN4C)c1C(F)(F)F [Example 10, (S)-6-(8-chloro-2-((2,2-difluorotetrahydro-1H-pyrrolizin-7a(5H)-yl)methoxy)-4-methyl-5,6-dihydro-4H-[1,4]oxazepino[5,6,7-de]quinazolin-9-yl)-4-methyl-5-(trifluoromethyl)pyridin-2-amine] | 300 | 1300 |
| Cc1cc(N)nc(-c2cc3ncnc4c3c(c2Cl)OCCN4C2(c3cccnc3N)CC2)c1C(F)(F)F [Example 11, 6-(4-(1-(2-aminopyridin-3-yl)cyclopropyl)-8-chloro-5,6-dihydro-4H-[1,4]oxazepino[5,6,7-de]quinazolin-9-yl)-4-methyl-5-(trifluoromethyl)pyridin-2-amine] | 1000 | 14000 |
| Cc1cc(N)nc(-c2cc3ncnc4c3c(c2Cl)OCCN4Cc2cccc(=O)[nH]2)c1C(F)(F)F [Example 12, 6-((9-(6-amino-4-methyl-3-(trifluoromethyl)pyridin-2-yl)-8-chloro-5,6-dihydro-4H-[1,4]oxazepino[5,6,7-de]quinazolin-4-yl)methyl)pyridin-2(1H)-one] | 8900 | 21000 |
| Cc1cc(N)nc(-c2cc3ncnc4c3c(c2Cl)OCCN4CCC#N)c1C(F)(F)F [Example 13, 3-(9-(6-amino-4-methyl-3-(trifluoromethyl)pyridin-2-yl)-8-chloro-5,6-dihydro-4H-[1,4]oxazepino[5,6,7-de]quinazolin-4-yl)propanenitrile] | 13000 | 36000 |
| Cc1cc(N)nc(-c2cc3ncnc4c3c(c2Cl)OCCN4CCC2COC2)c1C(F)(F)F [Example 14, 6-(8-chloro-4-(2-(oxetan-3-yl)ethyl)-5,6-dihydro-4H-[1,4]oxazepino[5,6,7-de]quinazolin-9-yl)-4-methyl-5-(trifluoromethyl)pyridin-2-amine] | 21000 | 200000 |

Continued, values first:

| IC50 (KRas(G12V)) [nM] | IC50 (KRas) [nM] | SMILES |
| --- | --- | --- |
| 540 | 2900 | Cc1cc(N)nc(-c2cc3ncnc4c3c(c2Cl)OCCN4Cc2cncc(N)c2)c1C(F)(F)F [Example 3, 6-(4-((5-aminopyridin-3-yl)methyl)-8-chloro-5,6-dihydro-4H-[1,4]oxazepino[5,6,7-de]quinazolin-9-yl)-4-methyl-5-(trifluoromethyl)pyridin-2-amine] |
| 1400 | 10000 | Cc1cc(N)nc(-c2cc3ncnc4c3c(c2Cl)OCCN4[C@@H](C)c2cncc(N)c2)c1C(F)(F)F [Example 4, (S)-6-(4-(1-(5-aminopyridin-3-yl)ethyl)-8-chloro-5,6-dihydro-4H-[1,4]oxazepino[5,6,7-de]quinazolin-9-yl)-4-methyl-5-(trifluoromethyl)pyridin-2-amine] |
| 1300 | 6300 | CNc1cncc(CN2CCOc3c(Cl)c(-c4nc(N)cc(C)c4C(F)(F)F)cc4ncnc2c34)c1 [Example 6, 6-(8-chloro-4-((5-(methylamino)pyridin-3-yl)methyl)-5,6-dihydro-4H-[1,4]oxazepino[5,6,7-de]quinazolin-9-yl)-4-methyl-5-(trifluoromethyl)pyridin-2-amine] |
| 10000 | 63000 | Cc1cc(N)nc(-c2cc3ncnc4c3c(c2Cl)OCCN4Cc2cncc(O)c2)c1C(F)(F)F [Example 9, 5-((9-(6-amino-4-methyl-3-(trifluoromethyl)pyridin-2-yl)-8-chloro-5,6-dihydro-4H-[1,4]oxazepino[5,6,7-de]quinazolin-4-yl)methyl)pyridin-3-ol] |
| 3600 | 31000 | Cc1cc(N)nc(-c2cc3ncnc4c3c(c2Cl)OCCN4C(C)c2cnc[nH]2)c1C(F)(F)F (centres unmarked) [Example 15, 6-(4-(1-(1H-imidazol-5-yl)ethyl)-8-chloro-5,6-dihydro-4H-[1,4]oxazepino[5,6,7-de]quinazolin-9-yl)-4-methyl-5-(trifluoromethyl)pyridin-2-amine] |
| 6900 | 32000 | Cc1cc(N)nc(-c2cc3ncnc4c3c(c2Cl)OCCN4C(C)CO)c1C(F)(F)F (centres unmarked) [Example 16, 2-(9-(6-amino-4-methyl-3-(trifluoromethyl)pyridin-2-yl)-8-chloro-5,6-dihydro-4H-[1,4]oxazepino[5,6,7-de]quinazolin-4-yl)propan-1-ol] |
| 1600 | 3400 | Cc1cc(N)nc(-c2cc3ncnc4c3c(c2Cl)OCCN4C2CCc3ccncc32)c1C(F)(F)F (centres unmarked) [Example 21, 6-(8-chloro-4-(6,7-dihydro-5H-cyclopenta[c]pyridin-7-yl)-5,6-dihydro-4H-[1,4]oxazepino[5,6,7-de]quinazolin-9-yl)-4-methyl-5-(trifluoromethyl)pyridin-2-amine] |
| 11000 | 43000 | Cc1cc(N)nc(-c2cc3ncnc4c3c(c2Cl)OCCN4Cc2ccns2)c1C(F)(F)F [Example 22, 6-(8-chloro-4-(isothiazol-5-ylmethyl)-5,6-dihydro-4H-[1,4]oxazepino[5,6,7-de]quinazolin-9-yl)-4-methyl-5-(trifluoromethyl)pyridin-2-amine] |
| 510 | 2000 | Cc1cc(N)nc(-c2cc3ncnc4c3c(c2Cl)OCCN4Cc2scnc2N)c1C(F)(F)F [Example 25, 5-((9-(6-amino-4-methyl-3-(trifluoromethyl)pyridin-2-yl)-8-chloro-5,6-dihydro-4H-[1,4]oxazepino[5,6,7-de]quinazolin-4-yl)methyl)thiazol-4-amine] |
| 580 | 1400 | Cc1cc(N)nc(-c2cc3ncnc4c3c(c2Cl)OCCN4C(C)(C)c2cccnc2N)c1C(F)(F)F [Example 27, 6-(4-(2-(2-aminopyridin-3-yl)propan-2-yl)-8-chloro-5,6-dihydro-4H-[1,4]oxazepino[5,6,7-de]quinazolin-9-yl)-4-methyl-5-(trifluoromethyl)pyridin-2-amine] |
| 7400 | 7400 | CSc1cncc(CN2CCOc3c(Cl)c(-c4nc(N)cc(C)c4C(F)(F)F)cc4ncnc2c34)c1 [Example 29, 6-(8-chloro-4-((5-(methylthio)pyridin-3-yl)methyl)-5,6-dihydro-4H-[1,4]oxazepino[5,6,7-de]quinazolin-9-yl)-4-methyl-5-(trifluoromethyl)pyridin-2-amine] |
